A short description of data set [1]: Chemical stability in solution, 7 days at 25° C., % remaining peptide. Format: physicochemical. As to conditions: % remaining peptide after 7 days at 25° C. The protocol:
The chemical stability is expressed as “% remaining peptide”.
Solubility and chemical stability of peptidic compounds were assessed as described in Methods.

Data set [2] has as its target T1, human GLP-1 receptor (hGLP-1 R) (Homo sapiens, UniProt P43220).
T1 construct: expressed in transfected cells
Put plainly: cAMP response (HTRF) of HEK-293 cells stably expressing human GLP-1 receptor. It counts as cell-based. As to conditions: Table 7; cAMP formation. The method, then:
cAMP content of cells was determined using a kit from Cisbio Corp. (cat. no. 62AM4PEC) based on HTRF (Homogenous Time Resolved Fluorescence). For preparation, cells were split into T175 culture flasks and grown overnight to near confluency in medium (DMEM/10% FBS). Medium was then removed and cells washed with PBS lacking calcium and magnesium, followed by proteinase treatment with accutase (Sigma-Aldrich cat. no. A6964). Detached cells were washed and resuspended in assay buffer (1×HBSS; 20 mM HEPES, 0.1% BSA, 2 mM IBMX) and cellular density determined. They were then diluted to 400000 cells/ml and 25 μl-aliquots dispensed into the wells of 96-well plates. For measurement, 25 μl of test compound in assay buffer was added to the wells, followed by incubation for 30 minutes at room temperature.

Data set [3] concerns non-fasted female diabetic dbdb-mice. Put plainly: Glucose lowering in non-fasted female diabetic dbdb-mice. It counts as in vivo. As to conditions: 3 μg/kg s.c., at 240 min, kept to 480 min, baseline 20-22 mmol/l. From the text: Female diabetic dbdb-mice of mean non-fasted glucose value of 20-22 mmol/l and a body weight of 42 g+/−0.6 g (SEM) were used. Mice were individually marked and were adapted to housing conditions for at least one week.
3-5 days prior to study start mice were assigned to groups and cages (4 mice per cage, 8 per group, control group 16) according to their non-fasted glucose values to ensure even distribution of lower and higher values between groups (stratification). On the study day, mice were weighed and dosed (t=0). Immediately prior to compound administration feed was removed while water remained available, and a first blood sample at a tail incision was drawn (baseline). Further blood samples were drawn at the tail incision at 30, 60, 90, 120, 240, 360, and 480 min.
Statistical analyses are performed with Everstat Version 6.0 based on SAS by 2-way-ANOVA on repeated measures, followed by Dunnett's post-hoc test against vehicle-control. Differences are considered statistically significant at the p<0.05 level.

Data set [4] relates to female NMRI-mice. The data set can be described thus: Gastric emptying and intestinal passage in female NMRI-mice. It counts as in vivo. The method, then:
Female NMRI-mice of a body weight between 20 and 30 g were used. Mice were adapted to housing conditions for at least one week.
Mice were overnight fasted, while water remained available all the time. On the study day, mice were weighed, single-caged and allowed access to 500 mg of feed for 30 min, while water was removed. At the end of the 30 min feeding period, remaining feed was removed and weighed. Then, the test compound/reference compound or its vehicle in the control group was administered subcutaneously. 60 min later, to allow the compound to reach relevant plasma exposure, a coloured, non-caloric bolus was instilled via gavage into the stomach. After another 30 min, the animals were sacrificed and the stomach and the small intestine prepared. The filled stomach was weighed, emptied, carefully cleaned and dried and reweighed. The stomach content, calculated as weight of filled subtracted by the weight of emptied stomach, indicated the degree of gastric emptying. The small intestine was straightened without force and measured in length. Then the distance from the gastric beginning of the gut to the tip of the farthest travelled intestinal content bolus was measured. The intestinal passage was given as ratio in percent of the latter distance and the total length of the small intestine.
Statistical analyses were performed with Everstat 6.0 by 1-way-ANOVA, followed by Dunnett's as post-hoc test. Dunnett's Test was applied to compare versus vehicle control. Differences were considered statistically significant at the p<0.05 level.
Female NMRI-mice, weighing on average 25-30 g, received 1, 10 and 100 μg/kg of SEQ ID NO: 11, or phosphate buffered saline (vehicle control) subcutaneously, 30 min prior to the administration of the coloured bolus. 30 min later, the assessment of stomach contents and intestinal passage was done (FIG. 8).

The source of these data is patent US9745360B2 (Sanofi, priority 2012, dated 2017).

*1 amine or outer side, *2 acyl side, *3 side chain or, on linkers, in order; H or OH if unused. Where a SMILES comes first, the peptide text is derived from it. Side-chain parts run from the residue outwards. [ ]: non-standard residue; d: D form. The star is where a group is joined. γGlu = O=C(O)[C@H](CCC(=O)[*:2])N[*:1]; Palmitoyl = CCCCCCCCCCCCCCCC(=O)*; αMeK = C[C@](N)(CCCCN)C(=O)O; Aib = CC(C)(N)C(=O)O

T1 sequence (P43220 24-463): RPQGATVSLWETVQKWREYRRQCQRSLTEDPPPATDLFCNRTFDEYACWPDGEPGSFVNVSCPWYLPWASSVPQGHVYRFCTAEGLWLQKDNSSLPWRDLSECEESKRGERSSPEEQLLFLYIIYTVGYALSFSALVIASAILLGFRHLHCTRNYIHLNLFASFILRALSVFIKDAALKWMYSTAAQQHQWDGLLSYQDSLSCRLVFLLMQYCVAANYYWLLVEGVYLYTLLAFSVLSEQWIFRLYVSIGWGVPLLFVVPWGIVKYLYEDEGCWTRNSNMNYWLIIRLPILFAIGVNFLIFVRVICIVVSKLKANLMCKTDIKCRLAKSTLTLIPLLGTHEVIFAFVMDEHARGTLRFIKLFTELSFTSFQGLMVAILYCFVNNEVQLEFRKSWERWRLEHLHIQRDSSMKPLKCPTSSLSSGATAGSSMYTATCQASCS

As to `CCCCCCCCCCCCCCCC(=O)N[C@@H](CCC(=O)NCCCC[C@H](NC(=O)[C@H](CCC(N)=O)NC(=O)[C@@H](NC(=O)[C@H](CO)NC(=O)[C@H](CC(C)C)NC(=O)[C@H](CC(=O)O)NC(=O)[C@H](CO)NC(=O)[C@@H](NC(=O)[C@H](Cc1ccccc1)NC(=O)[C@@H](NC(=O)CNC(=O)[C@H](CCC(=O)O)NC(=O)C(C)(C)NC(=O)[C@@H](N)Cc1ccc(O)cc1)[C@@H](C)O)[C@@H](C)O)[C@@H](C)CC)C(=O)N[C@@H](CCC(=O)O)C(=O)N[C@@H](CCC(=O)O)C(=O)N[C@@H](CCCNC(=N)N)C(=O)N[C@@H](C)C(=O)N[C@@H](C)C(=O)N[C@@](C)(CCCCN)C(=O)N[C@@H](CCC(=O)O)C(=O)N[C@@H](Cc1ccccc1)C(=O)N[C@H](C(=O)N[C@@H](CCC(=O)O)C(=O)N[C@@H](Cc1c[nH]c2ccccc12)C(=O)N[C@@H](CC(C)C)C(=O)N[C@@H](CCCCN)C(=O)N[C@@H](CC(N)=O)C(=O)N[C@H](C(=O)NCC(=O)N1CCC[C@H]1C(=O)N[C@@H](CO)C(=O)N[C@@H](CO)C(=O)NCC(=O)N[C@@H](C)C(=O)N1CCC[C@H]1C(=O)N1CCC[C@H]1C(=O)N1CCC[C@H]1C(=O)N[C@@H](CO)C(N)=O)[C@@H](C)O)[C@@H](C)CC)C(=O)O` [SEQ ID NO: 11, Y-Aib-E-G-T-F-T-S-D-L-S-I-Q-K(γE-x53)-E-E-R-A-A-(S)MeLys-E-F-I-E-W-L-K-N-T-G-P-S-S-G-A-P-P-P-S-NH2] (H-Y[Aib]EGTFTSDLSIQK([γGlu-Palmitoyl])EERAA[αMeK]EFIEWLKNTGPSSGAPPPS-NH2), the “Stability (pH 4.5)” value in data set [1] (pH 4.5) is on record as 100.0%. In data set [1] (pH 7.4), the “Stability (pH 7.4)” value came out at 99.0%. The molecule further yielded a 50% effective concentration (EC50) in data set [2] of 5.1 pM. Further, in data set [3], the “maximal effect, glucose reduction” value is about 11 mmol/L. Moreover, the “increase of remaining gastric contents” value was found to be 17% in data set [4] (1 μg/kg s.c.), 97% in data set [4] (10 μg/kg s.c.) and 106% in data set [4] (100 μg/kg s.c.). For the same molecule, the “reduction of intestinal passage” value in data set [4] (1 μg/kg s.c.) worked out at 44%; in data set [4] (10 μg/kg s.c.) it was 68%; in data set [4] (100 μg/kg s.c.) it was 69%.
